Measured values reported in PubChem BioAssay (NCI).
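Results reflect a 48-hour exposure of cells in 96-well plates to compound at five concentrations. TGI is the concentration that stops growth completely.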

Tests used:
Assay in all cases: growth of human tumour cells (NCI), 48 h
BT-549 breast = test system: BT-549 breast
OVCAR-3 ovarian = test system: OVCAR-3 ovarian
NCI-H522 lung = test system: NCI-H522 lung
SF-268 CNS = test system: SF-268 CNS
EKVX NSCLC = test system: EKVX NSCLC
IGROV1 ovarian = test system: IGROV1 ovarian
ACHN renal = test system: ACHN renal
MDA-MB-435 = test system: MDA-MB-435
UO-31 renal = test system: UO-31 renal
PC-3 prostate = test system: PC-3 prostate
MALME-3M melanoma = test system: MALME-3M melanoma
SF-539 CNS = test system: SF-539 CNS
HL-60(TB) leukemia = test system: HL-60(TB) leukemia
HCT-116 colon = test system: HCT-116 colon
LOX IMVI melanoma = test system: LOX IMVI melanoma
HS 578T breast = test system: HS 578T breast
SNB-19 CNS = test system: SNB-19 CNS
KM12 colon = test system: KM12 colon
SR leukemia = test system: SR leukemia
CAKI-1 renal = test system: CAKI-1 renal
RPMI-8226 leukemia = test system: RPMI-8226 leukemia
SK-MEL-5 melanoma = test system: SK-MEL-5 melanoma
K-562 leukemia = test system: K-562 leukemia
HCT-15 colon = test system: HCT-15 colon
HOP-62 NSCLC = test system: HOP-62 NSCLC
A549 NSCLC = test system: A549 NSCLC
COLO 205 colon = test system: COLO 205 colon
UACC-257 melanoma = test system: UACC-257 melanoma
SK-MEL-28 melanoma = test system: SK-MEL-28 melanoma
NCI-H226 lung = test system: NCI-H226 lung
A498 renal = test system: A498 renal
M14 melanoma = test system: M14 melanoma
TK-10 renal = test system: TK-10 renal
HCC-2998 colon = test system: HCC-2998 colon
SK-OV-3 ovarian = test system: SK-OV-3 ovarian
SF-295 CNS = test system: SF-295 CNS
OVCAR-8 ovarian = test system: OVCAR-8 ovarian
U251 CNS = test system: U251 CNS
OVCAR-4 ovarian = test system: OVCAR-4 ovarian
HT29 colon = test system: HT29 colon
HOP-92 NSCLC = test system: HOP-92 NSCLC
NCI/ADR-RES ovarian = test system: NCI/ADR-RES ovarian
NCI-H23 lung = test system: NCI-H23 lung
MDA-MB-231 breast = test system: MDA-MB-231 breast
CCRF-CEM leukemia = test system: CCRF-CEM leukemia
T-47D breast = test system: T-47D breast
MDA-N = test system: MDA-N
MCF7 breast = test system: MCF7 breast
NCI-H460 lung = test system: NCI-H460 lung
DU-145 prostate = test system: DU-145 prostate
SN12C renal = test system: SN12C renal
786-0 renal = test system: 786-0 renal
MOLT-4 leukemia = test system: MOLT-4 leukemia
SW-620 colon = test system: SW-620 colon
SK-MEL-2 melanoma = test system: SK-MEL-2 melanoma
OVCAR-5 ovarian = test system: OVCAR-5 ovarian
UACC-62 melanoma = test system: UACC-62 melanoma
SNB-75 CNS = test system: SNB-75 CNS

CNc1ccc(S(=O)Nc2ccc(OC)cc2)cc1 (configuration not stated)
TGI (BT-549 breast): > 100 µM | TGI (OVCAR-3 ovarian): > 100 µM | TGI (NCI-H522 lung): > 100 µM | TGI (SF-268 CNS): > 100 µM | TGI (EKVX NSCLC): > 100 µM | TGI (IGROV1 ovarian): > 100 µM | TGI (ACHN renal): > 100 µM | TGI (MDA-MB-435): 70.1 µM | TGI (UO-31 renal): 34.8 µM | TGI (PC-3 prostate): > 100 µM | TGI (MALME-3M melanoma): > 100 µM | TGI (SF-539 CNS): > 100 µM | TGI (HL-60(TB) leukemia): > 100 µM | TGI (HCT-116 colon): > 100 µM | TGI (LOX IMVI melanoma): > 100 µM | TGI (HS 578T breast): > 100 µM | TGI (SNB-19 CNS): > 100 µM | TGI (KM12 colon): 22.2 µM | TGI (SR leukemia): > 100 µM | TGI (CAKI-1 renal): > 100 µM | TGI (RPMI-8226 leukemia): > 100 µM | TGI (SK-MEL-5 melanoma): > 100 µM | TGI (K-562 leukemia): > 100 µM | TGI (HCT-15 colon): > 100 µM | TGI (HOP-62 NSCLC): > 100 µM | TGI (A549 NSCLC): > 100 µM | TGI (COLO 205 colon): 91.4 µM | TGI (UACC-257 melanoma): > 100 µM | TGI (SK-MEL-28 melanoma): > 100 µM | TGI (NCI-H226 lung): > 100 µM | TGI (A498 renal): > 100 µM | TGI (M14 melanoma): > 100 µM | TGI (TK-10 renal): > 100 µM | TGI (HCC-2998 colon): > 100 µM | TGI (SK-OV-3 ovarian): > 100 µM | TGI (SF-295 CNS): > 100 µM | TGI (OVCAR-8 ovarian): > 100 µM | TGI (U251 CNS): > 100 µM | TGI (OVCAR-4 ovarian): > 100 µM | TGI (HT29 colon): > 100 µM | TGI (HOP-92 NSCLC): > 100 µM | TGI (NCI/ADR-RES ovarian): > 100 µM | TGI (NCI-H23 lung): > 100 µM | TGI (MDA-MB-231 breast): > 100 µM | TGI (CCRF-CEM leukemia): > 100 µM | TGI (T-47D breast): > 100 µM | TGI (MDA-N): > 100 µM | TGI (MCF7 breast): > 100 µM | TGI (NCI-H460 lung): > 100 µM | TGI (DU-145 prostate): > 100 µM | TGI (SN12C renal): > 100 µM | TGI (786-0 renal): > 100 µM | TGI (MOLT-4 leukemia): > 100 µM | TGI (SW-620 colon): > 100 µM

Nc1ccccc1C(=O)CCc1c[nH]c2ccccc12
TGI (BT-549 breast): > 100 µM | TGI (OVCAR-3 ovarian): > 100 µM | TGI (NCI-H522 lung): > 100 µM | TGI (SF-268 CNS): > 100 µM | TGI (EKVX NSCLC): > 100 µM | TGI (IGROV1 ovarian): > 100 µM | TGI (ACHN renal): > 100 µM | TGI (MDA-MB-435): > 100 µM | TGI (UO-31 renal): > 100 µM | TGI (PC-3 prostate): > 100 µM | TGI (MALME-3M melanoma): > 100 µM | TGI (SF-539 CNS): > 100 µM | TGI (HL-60(TB) leukemia): > 100 µM | TGI (HCT-116 colon): > 100 µM | TGI (LOX IMVI melanoma): > 100 µM | TGI (HS 578T breast): > 100 µM | TGI (SNB-19 CNS): > 100 µM | TGI (KM12 colon): > 100 µM | TGI (SR leukemia): > 100 µM | TGI (RPMI-8226 leukemia): > 100 µM | TGI (SK-MEL-2 melanoma): > 100 µM | TGI (K-562 leukemia): > 100 µM | TGI (HCT-15 colon): > 100 µM | TGI (HOP-62 NSCLC): > 100 µM | TGI (A549 NSCLC): > 100 µM | TGI (UACC-257 melanoma): > 100 µM | TGI (SK-MEL-28 melanoma): > 100 µM | TGI (NCI-H226 lung): > 100 µM | TGI (OVCAR-5 ovarian): > 100 µM | TGI (A498 renal): > 100 µM | TGI (M14 melanoma): > 100 µM | TGI (TK-10 renal): > 100 µM | TGI (HCC-2998 colon): > 100 µM | TGI (SK-OV-3 ovarian): > 100 µM | TGI (SF-295 CNS): > 100 µM | TGI (OVCAR-8 ovarian): > 100 µM | TGI (U251 CNS): > 100 µM | TGI (OVCAR-4 ovarian): > 100 µM | TGI (HT29 colon): > 100 µM | TGI (UACC-62 melanoma): > 100 µM | TGI (HOP-92 NSCLC): 55.2 µM | TGI (NCI/ADR-RES ovarian): > 100 µM | TGI (MDA-MB-231 breast): > 100 µM | TGI (T-47D breast): > 100 µM | TGI (MDA-N): > 100 µM | TGI (MCF7 breast): > 100 µM | TGI (NCI-H460 lung): > 100 µM | TGI (DU-145 prostate): > 100 µM | TGI (SN12C renal): > 100 µM | TGI (786-0 renal): > 100 µM | TGI (MOLT-4 leukemia): > 100 µM | TGI (SNB-75 CNS): > 100 µM | TGI (SW-620 colon): > 100 µM
